PubChem BioAssay AID330 (DTP/NCI, 2004)
Where “and” joins values, the source holds several entries; their conditions need not be identical. Equal values may be shown once. Inconclusive results and toxic doses are left out. Rule for the calls: active = survival T/C of 150% or more; inactive = T/C below 125% in these data.

Tested on: P388 leukemia ip, CD2F1 mice, survival T/C
Experiment: NCI In Vivo Anticancer Drug Screen. Data for tumor model P388 Leukemia (intraperitoneal) in CD2F1 (CDF1) mice
Conditions: endpoint: median survival time, higher = longer survival
How it was run: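 Mice carrying the transplanted tumor received test compound or vehicle. Survival was recorded in each group, and the value is the treated-group measurement divided by that of the vehicle-treated control group.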

[1] = dose: 6.25 mg/kg/injection, schedule: Q01DX009 (ip), vehicle: saline with Tween-80
[2] = dose: 12.5 mg/kg/injection, schedule: Q01DX009 (ip), vehicle: saline with Tween-80
[3] = dose: 50.0 mg/kg/injection, schedule: Q01DX005 (ip), vehicle: Klucel (hydroxypropylcellulose) (HPC)
[4] = dose: 100.0 mg/kg/injection, schedule: Q01DX005 (ip), vehicle: Klucel (hydroxypropylcellulose) (HPC)
[5] = dose: 50.0 mg/kg/injection, schedule: Q01DX009 (ip), vehicle: saline
[6] = dose: 100.0 mg/kg/injection, schedule: Q01DX009 (ip), vehicle: saline
[7] = dose: 200.0 mg/kg/injection, schedule: Q01DX005 (ip), vehicle: Klucel (hydroxypropylcellulose) (HPC)
[8] = dose: 240.0 mg/kg/injection, schedule: Q01DX005 (ip), vehicle: Klucel (hydroxypropylcellulose) (HPC)
[9] = dose: 60.0 mg/kg/injection, schedule: Q01DX005 (ip), vehicle: saline with Tween-80
[10] = dose: 120.0 mg/kg/injection, schedule: Q01DX005 (ip), vehicle: saline with Tween-80

Measured: T/C

COc1cc2ccnc(C3(O)CCN(C)CC3)c2cc1OC
inactive: dose: 6.25 mg/kg/injection, schedule: Q01DX009 (ip), vehicle: Klucel (hydroxypropylcellulose) (HPC) 94 % of control | dose: 12.5 mg/kg/injection, schedule: Q01DX009 (ip), vehicle: Klucel (hydroxypropylcellulose) (HPC) 98 % of control | dose: 25.0 mg/kg/injection, schedule: Q01DX009 (ip), vehicle: Klucel (hydroxypropylcellulose) (HPC) 93 % of control | dose: 50.0 mg/kg/injection, schedule: Q01DX001 (ip), vehicle: Klucel (hydroxypropylcellulose) (HPC) 102 % of control | dose: 100.0 mg/kg/injection, schedule: Q01DX001 (ip), vehicle: Klucel (hydroxypropylcellulose) (HPC) 105 % of control | dose: 200.0 mg/kg/injection, schedule: Q01DX001 (ip), vehicle: Klucel (hydroxypropylcellulose) (HPC) 97 % of control

C/C=C/C=c1/[nH]c(=O)/c(=C\c2ccccc2)[nH]c1=O
inactive: dose: 50.0 mg/kg/injection, schedule: Q01DX009 (ip), vehicle: Klucel (hydroxypropylcellulose) (HPC) 104 % of control | dose: 100.0 mg/kg/injection, schedule: Q01DX009 (ip), vehicle: Klucel (hydroxypropylcellulose) (HPC) 104 % of control | dose: 200.0 mg/kg/injection, schedule: Q01DX009 (ip), vehicle: Klucel (hydroxypropylcellulose) (HPC) 103 % of control

Cc1ccccc1-c1cc2ccccc2c(N)n1
inactive: [1] 118 % of control | [2] 99 % of control

O=C(Nn1nnnc1-c1ccccc1)c1ccccc1
inactive: dose: 25.0 mg/kg/injection, schedule: Q01DX005 (ip), vehicle: Klucel (hydroxypropylcellulose) (HPC) 97 % of control | [3] 92 % of control | [4] 101 % of control

NC(=O)[C@H]1C[C@H](O)CN1C(=O)c1cnc2ccccc2c1
inactive: dose: 60.0 mg/kg/injection, schedule: Q01DX005 (ip), vehicle: saline 112 % of control | dose: 120.0 mg/kg/injection, schedule: Q01DX005 (ip), vehicle: saline 98 % of control | dose: 240.0 mg/kg/injection, schedule: Q01DX005 (ip), vehicle: saline 102 % of control

O=C(Oc1ccc[nH]c1=O)c1cccc(Cl)c1
inactive: dose: 25.0 mg/kg/injection, schedule: Q01DX009 (ip), vehicle: distilled water + Tween-80 100 % of control | dose: 50.0 mg/kg/injection, schedule: Q01DX009 (ip), vehicle: distilled water + Tween-80 100 % of control | dose: 100.0 mg/kg/injection, schedule: Q01DX009 (ip), vehicle: distilled water + Tween-80 95 % of control | dose: 200.0 mg/kg/injection, schedule: Q01DX009 (ip), vehicle: distilled water + Tween-80 99 % of control | dose: 400.0 mg/kg/injection, schedule: Q01DX009 (ip), vehicle: distilled water + Tween-80 97 % of control

COC(=O)c1c(-c2cc(OC)c(OC)cc2[N+](=O)[O-])c(C=O)n(C)c1C
inactive: dose: 100.0 mg/kg/injection, schedule: Q01DX001 (ip), vehicle: saline with Tween-80 100 % of control | dose: 200.0 mg/kg/injection, schedule: Q01DX001 (ip), vehicle: saline with Tween-80 99 % of control | dose: 400.0 mg/kg/injection, schedule: Q01DX001 (ip), vehicle: saline with Tween-80 91 % of control

CCOC(=O)/C=C(\Br)C(=O)OCC
inactive: dose: 3.15 mg/kg/injection, schedule: Q01DX009 (ip), vehicle: saline with Tween-80 108 % of control | [1] 99 % of control | [2] 119 % of control

Cc1cc([N+](=O)[O-])c(Cl)cc1NS(=O)(=O)c1ccccc1
inactive: dose: 50.0 mg/kg/injection, schedule: Q04DX003 (ip), vehicle: saline with Tween-80 100 % of control | dose: 100.0 mg/kg/injection, schedule: Q04DX003 (ip), vehicle: saline with Tween-80 95 % of control

O=S1(=O)C=C(Cl)C2C3CC(C(Cl)C3Cl)C21 (configuration not stated)
inactive: dose: 15.0 mg/kg/injection, schedule: Q04DX003 (ip), vehicle: saline 100 % of control | dose: 30.0 mg/kg/injection, schedule: Q04DX003 (ip), vehicle: saline 91 % of control

c1n[nH]c2c1CCCC2
inactive: dose: 12.5 mg/kg/injection, schedule: Q01DX009 (ip), vehicle: saline 96 % of control | dose: 25.0 mg/kg/injection, schedule: Q01DX009 (ip), vehicle: saline 105 % of control | [5] 91 % of control | [6] 104 % of control

CN(C)CCNc1ccc([N+](=O)[O-])c2sc3ccccc3c(=O)c12
inactive: [2] 114 % of control | dose: 100.0 mg/kg/injection, schedule: Q01DX009 (ip), vehicle: saline with Tween-80 103 % of control and 89 % of control

CC1=CC(=C2C(=O)c3ccccc3C2=O)C=C(C)N1CC#CCN1CCCCC1
inactive: [3] 108 % of control | [4] 98 % of control | [7] 88 % of control | [8] 90 % of control

N#CCCSC(=S)C(C#N)C(=N)c1ccccc1 (configuration not stated)
inactive: dose: 25.0 mg/kg/injection, schedule: Q04DX003 (ip), vehicle: Klucel (hydroxypropylcellulose) (HPC) 108 % of control | dose: 50.0 mg/kg/injection, schedule: Q04DX003 (ip), vehicle: Klucel (hydroxypropylcellulose) (HPC) 110 % of control | dose: 100.0 mg/kg/injection, schedule: Q04DX003 (ip), vehicle: Klucel (hydroxypropylcellulose) (HPC) 104 % of control and 92 % of control | dose: 200.0 mg/kg/injection, schedule: Q04DX003 (ip), vehicle: Klucel (hydroxypropylcellulose) (HPC) 92 % of control | dose: 400.0 mg/kg/injection, schedule: Q04DX003 (ip), vehicle: Klucel (hydroxypropylcellulose) (HPC) 96 % of control

COc1cc(OC)cc(C2OC(N)=C(O)C2=O)c1 (configuration not stated)
inactive: [3] 93 % of control | [4] 90 % of control | [7] 91 % of control

CCn1c(=O)c(C#N)c2n(CC)c3ccccc3n2c1=O
inactive: dose: 3.75 mg/kg/injection, schedule: Q01DX005 (ip), vehicle: saline with Tween-80 100 % of control | dose: 7.5 mg/kg/injection, schedule: Q01DX005 (ip), vehicle: saline with Tween-80 100 % of control | dose: 15.0 mg/kg/injection, schedule: Q01DX005 (ip), vehicle: saline with Tween-80 100 % of control

CC(C)(C)C(=O)CP(=O)(O)O (tested in a mixture with another compound)
inactive: [5] 105 % of control | [6] 101 % of control

C#CO[C@@H]1C[C@H](C)CCC1C(C)C (some centres not stated)
inactive: [9] 100 % of control | [10] 106 % of control

CCOc1nc(OC)c(Cc2c(OC)nc(OCC)c3c2CCCC3)c2c1CCCC2
inactive: dose: 47.5 mg/kg/injection, schedule: Q01DX005 (ip), vehicle: saline + Tween-80 + alcohol 102 % of control | dose: 95.0 mg/kg/injection, schedule: Q01DX005 (ip), vehicle: saline + Tween-80 + alcohol 90 % of control | dose: 190.0 mg/kg/injection, schedule: Q01DX005 (ip), vehicle: saline + Tween-80 + alcohol 87 % of control

CCOC(=O)C1=C(C(=O)c2ccc(C)cc2)C(c2cccc([N+](=O)[O-])c2)C(C(=O)c2ccc(C)cc2)=C(C(=O)OCC)N1
inactive: [9] 103 % of control | [10] 93 % of control | dose: 240.0 mg/kg/injection, schedule: Q01DX005 (ip), vehicle: saline with Tween-80 111 % of control

[Co].[N-]=C=S.[N-]=C=S.[N-]=C=S.[NH-]CC[N-]CC[NH-]
inactive: dose: 2.5 mg/kg/injection, schedule: Q01DX009 (ip), vehicle: saline 114 % of control | dose: 5.0 mg/kg/injection, schedule: Q01DX009 (ip), vehicle: saline 114 % of control | dose: 10.0 mg/kg/injection, schedule: Q01DX009 (ip), vehicle: saline 107 % of control | dose: 22.0 mg/kg/injection, schedule: Q01DX009 (ip), vehicle: saline 88 % of control | dose: 44.0 mg/kg/injection, schedule: Q01DX009 (ip), vehicle: saline 100 % of control | [5] 118 % of control

CCOc1ccc(-n2c(-c3ccc(F)cc3)c(N=Nc3ccccc3)sc2=N)cc1
inactive: dose: 60.0 mg/kg/injection, schedule: Q01DX005 (ip), vehicle: Klucel (hydroxypropylcellulose) (HPC) 96 % of control | dose: 120.0 mg/kg/injection, schedule: Q01DX005 (ip), vehicle: Klucel (hydroxypropylcellulose) (HPC) 102 % of control | [8] 108 % of control
